Laboratory results: the CheMixHub viscosity set
± gives the uncertainty stated by the source.

Test: xn = mol fraction of the nth substance listed

CCCCCO + Cc1ccccc1
Settings | viscosity [mPa·s]
293.15 K, 101.33 kPa, x1 = 0.0767 | 0.623 ± 0.008
293.15 K, 101.33 kPa, x1 = 0.155 | 0.678 ± 0.009
293.15 K, 101.33 kPa, x1 = 0.2336 | 0.747 ± 0.01
293.15 K, 101.33 kPa, x1 = 0.3074 | 0.834 ± 0.011
293.15 K, 101.33 kPa, x1 = 0.3459 | 0.888 ± 0.011
293.15 K, 101.33 kPa, x1 = 0.4529 | 1.094 ± 0.014
293.15 K, 101.33 kPa, x1 = 0.5308 | 1.29 ± 0.016
293.15 K, 101.33 kPa, x1 = 0.601 | 1.512 ± 0.018
293.15 K, 101.33 kPa, x1 = 0.6728 | 1.795 ± 0.021
293.15 K, 101.33 kPa, x1 = 0.7788 | 2.338 ± 0.027
293.15 K, 101.33 kPa, x1 = 0.8616 | 2.883 ± 0.033
293.15 K, 101.33 kPa, x1 = 0.8898 | 3.096 ± 0.035
303.15 K, 101 kPa, x1 = 0.0999 | 0.564 ± 0.02
303.15 K, 101 kPa, x1 = 0.1999 | 0.6272 ± 0.022
303.15 K, 101 kPa, x1 = 0.3 | 0.7213 ± 0.025
303.15 K, 101 kPa, x1 = 0.4 | 0.8366 ± 0.028
303.15 K, 101 kPa, x1 = 0.4999 | 0.9954 ± 0.033
303.15 K, 101 kPa, x1 = 0.6001 | 1.221 ± 0.039
303.15 K, 101 kPa, x1 = 0.6999 | 1.475 ± 0.047
303.15 K, 101 kPa, x1 = 0.8001 | 1.822 ± 0.057
303.15 K, 101 kPa, x1 = 0.9001 | 2.289 ± 0.071
303.15 K, 101.33 kPa, x2 = 0.0745 | 2.508 ± 0.044
303.15 K, 101.33 kPa, x2 = 0.2114 | 1.81 ± 0.032
303.15 K, 101.33 kPa, x2 = 0.4291 | 1.101 ± 0.019
303.15 K, 101.33 kPa, x2 = 0.5202 | 0.925 ± 0.016
303.15 K, 101.33 kPa, x2 = 0.609 | 0.787 ± 0.014
303.15 K, 101.33 kPa, x2 = 0.7058 | 0.678 ± 0.012
303.15 K, 101.33 kPa, x2 = 0.8063 | 0.592 ± 0.011
303.15 K, 101.33 kPa, x2 = 0.8629 | 0.564 ± 0.01
303.15 K, 101.33 kPa, x2 = 0.9443 | 0.536 ± 0.01
308.15 K, 101 kPa, x1 = 0.0999 | 0.5329 ± 0.019
308.15 K, 101 kPa, x1 = 0.1999 | 0.5883 ± 0.021
308.15 K, 101 kPa, x1 = 0.3 | 0.6717 ± 0.023
308.15 K, 101 kPa, x1 = 0.4 | 0.7723 ± 0.026
308.15 K, 101 kPa, x1 = 0.4999 | 0.9102 ± 0.03
308.15 K, 101 kPa, x1 = 0.6001 | 1.106 ± 0.036
308.15 K, 101 kPa, x1 = 0.6999 | 1.324 ± 0.042
308.15 K, 101 kPa, x1 = 0.8001 | 1.617 ± 0.051
308.15 K, 101 kPa, x1 = 0.9001 | 2.077 ± 0.065
308.15 K, 101.33 kPa, x2 = 0.0745 | 2.202 ± 0.039
308.15 K, 101.33 kPa, x2 = 0.2114 | 1.611 ± 0.028
308.15 K, 101.33 kPa, x2 = 0.4291 | 1.001 ± 0.018
308.15 K, 101.33 kPa, x2 = 0.5202 | 0.846 ± 0.015
308.15 K, 101.33 kPa, x2 = 0.609 | 0.726 ± 0.013
308.15 K, 101.33 kPa, x2 = 0.7058 | 0.63 ± 0.012
308.15 K, 101.33 kPa, x2 = 0.8063 | 0.554 ± 0.01
308.15 K, 101.33 kPa, x2 = 0.8629 | 0.53 ± 0.01
308.15 K, 101.33 kPa, x2 = 0.9443 | 0.507 ± 0.007
313.15 K, 101 kPa, x1 = 0.0999 | 0.4988 ± 0.018
313.15 K, 101 kPa, x1 = 0.1999 | 0.5518 ± 0.02
313.15 K, 101 kPa, x1 = 0.3 | 0.6271 ± 0.022
313.15 K, 101 kPa, x1 = 0.4 | 0.7149 ± 0.025
313.15 K, 101 kPa, x1 = 0.4999 | 0.8351 ± 0.028
313.15 K, 101 kPa, x1 = 0.6001 | 1.004 ± 0.033
313.15 K, 101 kPa, x1 = 0.6999 | 1.192 ± 0.038
313.15 K, 101 kPa, x1 = 0.8001 | 1.442 ± 0.046
313.15 K, 101 kPa, x1 = 0.9001 | 1.838 ± 0.058
313.15 K, 101.33 kPa, x2 = 0.0745 | 1.94 ± 0.035
313.15 K, 101.33 kPa, x2 = 0.2114 | 1.439 ± 0.026
313.15 K, 101.33 kPa, x2 = 0.4291 | 0.911 ± 0.016
313.15 K, 101.33 kPa, x2 = 0.5202 | 0.778 ± 0.014
313.15 K, 101.33 kPa, x2 = 0.609 | 0.67 ± 0.012
313.15 K, 101.33 kPa, x2 = 0.7058 | 0.587 ± 0.011
313.15 K, 101.33 kPa, x2 = 0.8063 | 0.52 ± 0.01
313.15 K, 101.33 kPa, x2 = 0.8629 | 0.5 ± 0.007
313.15 K, 101.33 kPa, x2 = 0.9443 | 0.484 ± 0.007
318.15 K, 101 kPa, x1 = 0.0999 | 0.4725 ± 0.017
318.15 K, 101 kPa, x1 = 0.1999 | 0.5195 ± 0.019
318.15 K, 101 kPa, x1 = 0.3 | 0.5876 ± 0.021
318.15 K, 101 kPa, x1 = 0.4 | 0.6645 ± 0.023
318.15 K, 101 kPa, x1 = 0.4999 | 0.7703 ± 0.026
318.15 K, 101 kPa, x1 = 0.6001 | 0.9178 ± 0.03
318.15 K, 101 kPa, x1 = 0.6999 | 1.08 ± 0.035
318.15 K, 101 kPa, x1 = 0.8001 | 1.296 ± 0.042
318.15 K, 101 kPa, x1 = 0.9001 | 1.63 ± 0.052
323.15 K, 101 kPa, x1 = 0.0999 | 0.4511 ± 0.017
323.15 K, 101 kPa, x1 = 0.1999 | 0.4907 ± 0.018
323.15 K, 101 kPa, x1 = 0.3 | 0.5523 ± 0.02
323.15 K, 101 kPa, x1 = 0.4 | 0.6202 ± 0.022
323.15 K, 101 kPa, x1 = 0.4999 | 0.7139 ± 0.025
323.15 K, 101 kPa, x1 = 0.6001 | 0.8422 ± 0.028
323.15 K, 101 kPa, x1 = 0.6999 | 0.982 ± 0.032
323.15 K, 101 kPa, x1 = 0.8001 | 1.169 ± 0.038
323.15 K, 101 kPa, x1 = 0.9001 | 1.459 ± 0.047

CCOCCOCCO + CCCO
viscosity [mPa·s], 101 kPa
Settings | 298.15 K | 308.15 K | 318.15 K
x1 = 0.0114 | 1.94 ± 0.018 | 1.509 ± 0.014 | 1.233 ± 0.012
x1 = 0.0195 | 1.939 ± 0.018 | 1.508 ± 0.014 | 1.233 ± 0.011
x1 = 0.0356 | 1.947 ± 0.018 | 1.516 ± 0.014 | 1.248 ± 0.012
x1 = 0.0469 | 1.955 ± 0.018 | 1.517 ± 0.014 | 1.249 ± 0.012
x1 = 0.0557 | 1.95 ± 0.018 | 1.526 ± 0.014 | 1.259 ± 0.012
x1 = 0.0883 | 1.972 ± 0.018 | 1.546 ± 0.014 | 1.277 ± 0.012
x1 = 0.1002 | 1.992 ± 0.018 | 1.558 ± 0.015 | 1.281 ± 0.012
x1 = 0.136 | 2.017 ± 0.019 | 1.588 ± 0.015 | 1.308 ± 0.012
x1 = 0.1447 | 2.04 ± 0.019 | 1.589 ± 0.015 | 1.316 ± 0.012
x1 = 0.168 | 2.051 ± 0.019 | 1.617 ± 0.015 | 1.341 ± 0.013
x1 = 0.245 | 2.184 ± 0.021 | 1.701 ± 0.017 | 1.409 ± 0.014
x1 = 0.2877 | 2.294 ± 0.023 | 1.756 ± 0.018 | 1.456 ± 0.014
x1 = 0.3493 | 2.473 ± 0.025 | 1.868 ± 0.019 | 1.567 ± 0.016
x1 = 0.411 | 2.616 ± 0.027 | 1.984 ± 0.021 | 1.657 ± 0.017
x1 = 0.4745 | 2.761 ± 0.029 | 2.1 ± 0.022 | 1.752 ± 0.018
x1 = 0.536 | 2.889 ± 0.031 | 2.191 ± 0.024 | 1.822 ± 0.02
x1 = 0.6067 | 3.022 ± 0.034 | 2.29 ± 0.026 | 1.903 ± 0.021
x1 = 0.6682 | 3.138 ± 0.036 | 2.378 ± 0.028 | 1.978 ± 0.022
x1 = 0.7228 | 3.248 ± 0.038 | 2.453 ± 0.029 | 2.044 ± 0.024
x1 = 0.7879 | 3.383 ± 0.041 | 2.55 ± 0.031 | 2.118 ± 0.025
x1 = 0.8412 | 3.494 ± 0.043 | 2.622 ± 0.033 | 2.178 ± 0.027
x1 = 0.894 | 3.6 ± 0.046 | 2.695 ± 0.034 | 2.238 ± 0.028
x1 = 0.9378 | 3.694 ± 0.048 | 2.76 ± 0.036 | 2.281 ± 0.029
x1 = 0.9751 | 3.755 ± 0.049 | 2.813 ± 0.037 | 2.324 ± 0.03

C1CCC2CCCCC2C1 (stereo not given) + CC12CC3CC(C1)CC(C)(C3)C2
viscosity [mPa·s], 100 kPa
Settings | x2 = 0.1034 | x2 = 0.2043 | x2 = 0.305 | x2 = 0.4034 | x2 = 0.5024 | x2 = 0.6048 | x2 = 0.7046 | x2 = 0.8094 | x2 = 0.9013
293.15 K | 2.607 ± 0.014 | 2.713 ± 0.014 | 2.812 ± 0.014 | 2.919 ± 0.014 | 3.039 ± 0.015 | 3.167 ± 0.015 | 3.31 ± 0.016 | 3.465 ± 0.016 | 3.622 ± 0.016
298.15 K | 2.361 ± 0.013 | 2.449 ± 0.013 | 2.53 ± 0.01 | 2.628 ± 0.014 | 2.728 ± 0.014 | 2.844 ± 0.014 | 2.967 ± 0.015 | 3.102 ± 0.015 | 3.237 ± 0.015
303.15 K | 2.148 ± 0.013 | 2.227 ± 0.013 | 2.299 ± 0.013 | 2.384 ± 0.013 | 2.468 ± 0.013 | 2.57 ± 0.014 | 2.675 ± 0.014 | 2.799 ± 0.014 | 2.909 ± 0.015
313.15 K | 1.802 ± 0.012 | 1.86 ± 0.012 | 1.917 ± 0.012 | 1.98 ± 0.012 | 2.046 ± 0.012 | 2.125 ± 0.013 | 2.206 ± 0.013 | 2.298 ± 0.013 | 2.385 ± 0.013
323.15 K | 1.505 ± 0.011 | 1.547 ± 0.011 | 1.592 ± 0.011 | 1.641 ± 0.012 | 1.697 ± 0.012 | 1.759 ± 0.012 | 1.825 ± 0.012 | 1.902 ± 0.012 | 1.974 ± 0.012

C=CC(C)(O)CCC=C(C)C (stereo not given) + COC(C)(C)C
298.15 K, 101.33 kPa
Settings | viscosity [mPa·s]
x2 = 0.0756 | 3.692 ± 0.027
x2 = 0.1208 | 3.314 ± 0.024
x2 = 0.1819 | 2.856 ± 0.02
x2 = 0.3063 | 2.093 ± 0.015
x2 = 0.3763 | 1.761 ± 0.012
x2 = 0.5129 | 1.25 ± 0.0089
x2 = 0.5989 | 0.9982 ± 0.0074
x2 = 0.7222 | 0.7171 ± 0.0061
x2 = 0.8148 | 0.5569 ± 0.0054
x2 = 0.9106 | 0.4273 ± 0.0049
x2 = 0.9692 | 0.3605 ± 0.0047

COCC(C)O (stereo not given) + CC(=O)CC(C)C
298.15 K, 101 kPa
Settings | viscosity [mPa·s]
x2 = 0.1057 | 1.373 ± 0.013
x2 = 0.2037 | 1.167 ± 0.011
x2 = 0.3075 | 1.006 ± 0.01
x2 = 0.4185 | 0.875 ± 0.009
x2 = 0.5295 | 0.774 ± 0.008
x2 = 0.6413 | 0.696 ± 0.007
x2 = 0.7612 | 0.63 ± 0.006
x2 = 0.8745 | 0.582 ± 0.006
